Assay [1] has as its target T1, ΔF508-CFTR (Homo sapiens, UniProt P13569, DEL508-508).
T1 construct: host or cells: CFBE41o-, doxycycline-inducible
Nature of the assay: CFTR cell surface levels using HRP-tagged ΔF508-CFTR expressing CFBE cells, intrinsic corrector capacity. The settings on record: HRP-tagged ΔF508-CFTR expressing CFBE41o- cells, compound alone (intrinsic corrector capacity), 20 hours at 33° C.; for EC50: read-out: EC50. Further details: % Activation: concentration or dose not given beside the values. It counts as cell-based. The essentials:
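Read-out: chemiluminescent HRP activity of ECL4-HRP-tagged ΔF508-CFTR at the cell surface, 15 min substrate in dark. Normalized as 100×(sample−DMSO)/(positive control−DMSO).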

The target of assay [2] is T1, ΔF508-CFTR. Nature of the assay: CFTR cell surface levels using HRP-tagged ΔF508-CFTR expressing CFBE cells, in the presence of a co-corrector. It counts as cell-based. The settings on record: HRP-tagged ΔF508-CFTR CFBE cells, in the presence of 3 μM co-corrector; for EC50: read-out: EC50. In short, it runs like this:
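Chemiluminescent read-out of surface HRP (15 min, dark) after PBS washes. Activity is normalized as 100×(sample−DMSO)/(3 μM co-corrector alone−DMSO).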

Molecules are shown by their SMILES.

T1 sequence (P13569 with tags, fused parts or gaps DEL508-508): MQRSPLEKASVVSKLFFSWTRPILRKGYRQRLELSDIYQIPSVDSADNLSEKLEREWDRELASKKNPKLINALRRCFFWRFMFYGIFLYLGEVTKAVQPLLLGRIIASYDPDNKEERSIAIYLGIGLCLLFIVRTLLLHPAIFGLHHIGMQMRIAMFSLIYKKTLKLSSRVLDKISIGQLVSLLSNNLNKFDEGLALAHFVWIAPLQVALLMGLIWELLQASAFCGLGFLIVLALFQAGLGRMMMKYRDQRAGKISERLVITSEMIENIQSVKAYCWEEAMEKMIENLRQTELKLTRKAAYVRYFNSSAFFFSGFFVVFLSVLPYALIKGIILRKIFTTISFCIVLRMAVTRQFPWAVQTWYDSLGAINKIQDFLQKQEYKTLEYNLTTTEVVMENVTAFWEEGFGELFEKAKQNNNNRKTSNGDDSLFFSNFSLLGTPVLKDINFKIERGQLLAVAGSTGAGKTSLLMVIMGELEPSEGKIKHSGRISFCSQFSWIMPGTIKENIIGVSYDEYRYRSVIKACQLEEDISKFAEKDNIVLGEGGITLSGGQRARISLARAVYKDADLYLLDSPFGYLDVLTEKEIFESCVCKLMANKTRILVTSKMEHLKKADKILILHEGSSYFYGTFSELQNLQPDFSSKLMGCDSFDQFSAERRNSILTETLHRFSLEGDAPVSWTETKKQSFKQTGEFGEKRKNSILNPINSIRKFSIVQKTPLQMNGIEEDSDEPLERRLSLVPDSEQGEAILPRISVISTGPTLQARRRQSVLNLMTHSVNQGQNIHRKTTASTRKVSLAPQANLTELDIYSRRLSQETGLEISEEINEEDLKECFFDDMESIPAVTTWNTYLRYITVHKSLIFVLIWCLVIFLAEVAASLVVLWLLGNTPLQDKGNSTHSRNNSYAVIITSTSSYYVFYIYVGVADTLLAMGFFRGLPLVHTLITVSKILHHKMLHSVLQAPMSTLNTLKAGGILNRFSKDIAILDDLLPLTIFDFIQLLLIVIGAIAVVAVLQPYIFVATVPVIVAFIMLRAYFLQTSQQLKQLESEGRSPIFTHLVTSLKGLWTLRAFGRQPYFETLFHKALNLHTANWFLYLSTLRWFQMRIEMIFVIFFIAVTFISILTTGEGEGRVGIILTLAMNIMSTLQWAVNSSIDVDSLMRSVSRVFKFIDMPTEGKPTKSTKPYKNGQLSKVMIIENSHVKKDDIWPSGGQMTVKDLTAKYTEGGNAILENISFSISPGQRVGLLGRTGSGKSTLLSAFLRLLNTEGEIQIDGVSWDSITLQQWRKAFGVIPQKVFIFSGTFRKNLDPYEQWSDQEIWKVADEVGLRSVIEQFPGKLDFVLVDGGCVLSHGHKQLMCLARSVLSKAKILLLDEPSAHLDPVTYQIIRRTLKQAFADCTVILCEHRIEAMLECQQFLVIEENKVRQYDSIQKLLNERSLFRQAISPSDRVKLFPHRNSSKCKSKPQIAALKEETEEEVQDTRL

In the case of `CC(C)c1nn(-c2cc(F)cc(F)c2)c2nc(C(=O)NS(C)(=O)=O)cc(-c3ccc(N4CCC(C#N)CC4)cc3)c12` [Compound 130, 4-[4-(4-cyanopiperidin-1-yl)phenyl]-1-(3,5-difluorophenyl)-N-(methanesulfonyl)-3-(propan-2-yl)-1H-pyrazolo[3,4-b]pyridine-6-carboxamide], the “% Activation” value at ΔF508-CFTR [1] is 318.25%; at ΔF508-CFTR [2] it was 496.9%. Also, the concentration giving a half-maximal response (EC50) at ΔF508-CFTR [1] came to 541 nM; on ΔF508-CFTR [2], 540 nM.

Take `CC(C)c1nn(-c2cccc(F)c2)c2nc(C(=O)NS(C)(=O)=O)cc(-c3ccc(N4CCC(C#N)CC4)cc3)c12` [Compound 131, 4-[4-(4-cyanopiperidin-1-yl)phenyl]-1-(3-fluorophenyl)-N-(methanesulfonyl)-3-(propan-2-yl)-1H-pyrazolo[3,4-b]pyridine-6-carboxamide]: on ΔF508-CFTR [1], the “% Activation” value is on record as 314.35% and the 50% effective concentration (EC50) was determined as 430 nM. For the same molecule, on ΔF508-CFTR [2], the “% Activation” value turned out to be 465.1% and the 50% effective concentration (EC50) was determined as 581 nM.

`COCCN(C)c1ccc(-c2cc(C(=O)NS(C)(=O)=O)nc3c2c(C(C)C)nn3-c2cccc(C(F)(F)F)c2)cc1` [Compound 132, N-(methanesulfonyl)-4-{4-[(2-methoxyethyl)(methyl)amino]phenyl}-3-(propan-2-yl)-1-[3-(trifluoromethyl)phenyl]-1H-pyrazolo[3,4-b]pyridine-6-carboxamide]: at ΔF508-CFTR [1], the “% Activation” value was determined as 244% and the 50% effective concentration (EC50) turned out to be 1270 nM. On ΔF508-CFTR [2], the “% Activation” value is on record as 417.2% and the EC50 came out at 882 nM.

Consider `CC(C)c1nn(-c2cccc(C(F)(F)F)c2)c2nc(C(=O)NS(C)(=O)=O)cc(-c3ccc(N(C)C4CCOCC4)nc3)c12` [Compound 133, N-(methanesulfonyl)-4-{6-[methyl(oxan-4-yl)amino]pyridin-3-yl}-3-(propan-2-yl)-1-[3-(trifluoromethyl)phenyl]-1H-pyrazolo[3,4-b]pyridine-6-carboxamide], for which, at ΔF508-CFTR [1], the “% Activation” value was 222.33% and the 50% effective concentration (EC50) worked out at 413 nM. For the same molecule, at ΔF508-CFTR [2], the “% Activation” value turned out to be 417.7% and the EC50 worked out at 336 nM.

On to `CC(C)c1nn(-c2ccc(F)cc2)c2nc(C(=O)NS(C)(=O)=O)cc(-c3cnc(N(C)C4CCOCC4)nc3)c12` [Compound 134, 1-(4-fluorophenyl)-N-(methanesulfonyl)-4-{2-[methyl(oxan-4-yl)amino]pyrimidin-5-yl}-3-(propan-2-yl)-1H-pyrazolo[3,4-b]pyridine-6-carboxamide], for which, on ΔF508-CFTR [1], the “% Activation” value was determined as 229.87% and the 50% effective concentration (EC50) is 465 nM. Besides, on ΔF508-CFTR [2], the “% Activation” value was 435.8% and the EC50 turned out to be 237 nM.

In the case of `CC(C)c1nn(-c2cccc(C(F)(F)F)c2)c2nc(C(=O)NS(C)(=O)=O)cc(-c3ccc(N4CCC(C#N)CC4)cc3)c12` [Compound 135, 4-[4-(4-cyanopiperidin-1-yl)phenyl]-N-(methanesulfonyl)-3-(propan-2-yl)-1-[3-(trifluoromethyl)phenyl]-1H-pyrazolo[3,4-b]pyridine-6-carboxamide], on ΔF508-CFTR [1], the “% Activation” value was found to be 299.63% and the 50% effective concentration (EC50) is 696 nM. Also, on ΔF508-CFTR [2], the “% Activation” value is listed as 512.9% and the EC50 is 373 nM.

In the case of `CC1(c2nn(-c3ccccc3)c3nc(C(=O)NS(C)(=O)=O)cc(-c4ccc(N5CCOCC5)cc4)c23)CCC1` [Compound 137, N-(methanesulfonyl)-3-(1-methylcyclobutyl)-4-[4-(morpholin-4-yl)phenyl]-1-phenyl-1H-pyrazolo[3,4-b]pyridine-6-carboxamide], the “% Activation” value at ΔF508-CFTR [1] was 131.8%; at ΔF508-CFTR [2] it was 339.7%. Also, the EC50 at ΔF508-CFTR [1] was 1170 nM; on ΔF508-CFTR [2], 638 nM.

Take `CCS(=O)(=O)NC(=O)c1cc(-c2ccc(N3CCOCC3)cc2)c2c(C3(C)CCC3)nn(-c3ccccc3)c2n1` [Compound 138, N-(ethanesulfonyl)-3-(1-methylcyclobutyl)-4-[4-(morpholin-4-yl)phenyl]-1-phenyl-1H-pyrazolo[3,4-b]pyridine-6-carboxamide]: on ΔF508-CFTR [1], the “% Activation” value was found to be 252.9% and the EC50 turned out to be 334 nM. Further, at ΔF508-CFTR [2], the “% Activation” value was 433.83% and the EC50 is 236 nM.

With `CC(C)c1nn(-c2ccc(F)cc2F)c2nc(C(=O)NS(C)(=O)=O)cc(-c3cnc(N4CCC(C#N)CC4)nc3)c12` [Compound 139, 4-[2-(4-cyanopiperidin-1-yl)pyrimidin-5-yl]-1-(2,4-difluorophenyl)-N-(methanesulfonyl)-3-(propan-2-yl)-1H-pyrazolo[3,4-b]pyridine-6-carboxamide], at ΔF508-CFTR [1], the “% Activation” value is listed as 163.83% and the 50% effective concentration (EC50) amounted to 806 nM. Moreover, at ΔF508-CFTR [2], the “% Activation” value was found to be 335.5% and the concentration for a half-maximal effect (EC50) came out at 765 nM.

Consider `CC(C)c1nn(-c2ccc(F)cc2F)c2nc(C(=O)NS(C)(=O)=O)cc(-c3ccc(N4CCC(C#N)CC4)nc3)c12` [Compound 140, 4-[6-(4-cyanopiperidin-1-yl)pyridin-3-yl]-1-(2,4-difluorophenyl)-N-(methanesulfonyl)-3-(propan-2-yl)-1H-pyrazolo[3,4-b]pyridine-6-carboxamide], for which the “% Activation” value is listed as 210.3% at ΔF508-CFTR [1] and 377.9% on ΔF508-CFTR [2]. The EC50 on ΔF508-CFTR [1] was found to be 734 nM; on ΔF508-CFTR [2], 381 nM.

Regarding `CC(C)c1nn(-c2ccc(F)cc2F)c2nc(C(=O)NS(C)(=O)=O)cc(-c3ccc(N4CCC(C#N)CC4)cc3)c12` [Compound 141, 4-[4-(4-cyanopiperidin-1-yl)phenyl]-1-(2,4-difluorophenyl)-N-(methanesulfonyl)-3-(propan-2-yl)-1H-pyrazolo[3,4-b]pyridine-6-carboxamide], on ΔF508-CFTR [1], the “% Activation” value is given as 233.07% and the EC50 amounted to 287 nM. Moreover, at ΔF508-CFTR [2], the “% Activation” value stood at 414.63% and the EC50 turned out to be 221 nM.

For the molecule `COC1CCN(c2cc(C(=O)NS(=O)(=O)C3CCS(=O)(=O)C3)nc3c2c(C2CCC2)nn3-c2ccccc2)CC1` (centres unmarked) [Compound 143, 3-cyclobutyl-N-(1,1-dioxo-1λ^6-thiolane-3-sulfonyl)-4-(4-methoxypiperidin-1-yl)-1-phenyl-1H-pyrazolo[3,4-b]pyridine-6-carboxamide], at ΔF508-CFTR [1], the “% Activation” value stood at 107.15% and the EC50 was 1110 nM. At ΔF508-CFTR [2], the “% Activation” value is listed as 217.8% and the EC50 is 834 nM.

As to `CC(C)c1nn(C2CCCOC2)c2nc(C(=O)NS(C)(=O)=O)cc(-c3ccc(N4CCC(C#N)CC4)nc3)c12` (centres unmarked) [Compound 145, 4-[6-(4-cyanopiperidin-1-yl)pyridin-3-yl]-N-(methanesulfonyl)-1-(oxan-3-yl)-3-(propan-2-yl)-1H-pyrazolo[3,4-b]pyridine-6-carboxamide], on ΔF508-CFTR [1], the “% Activation” value is reported as 112.03% and the half-maximal effective concentration (EC50) came to 1040 nM. Besides, on ΔF508-CFTR [2], the “% Activation” value came to 271.43% and the concentration giving a half-maximal response (EC50) is 636 nM.

Regarding `COC1CCN(c2cc(C(=O)NS(=O)(=O)CCC(F)(F)F)nc3c2c(C2CCC2)nn3-c2ccccc2)CC1` [Compound 147, 3-cyclobutyl-4-(4-methoxypiperidin-1-yl)-1-phenyl-N-(3,3,3-trifluoropropane-1-sulfonyl)-1H-pyrazolo[3,4-b]pyridine-6-carboxamide], on ΔF508-CFTR [1], the “% Activation” value turned out to be 176.47% and the EC50 turned out to be 359 nM. Further, on ΔF508-CFTR [2], the “% Activation” value worked out at 363.93% and the half-maximal effective concentration (EC50) was found to be 99.9 nM.

Source of the values: patent US10259810B2, “N-sulfonylated pyrazolo[3,4-b]pyridin-6-carboxamides and method of use” (AbbVie S.à.r.l., priority 2015, dated 2019).
